Assay results from the supplement of paper PMC11061612.

Assays:
Assay in all cases: combination Emax (second highest fraction inhibited in the dose matrix, 72 h); higher = more inhibition; extreme values may be limits of the assay
[1] = system: CW-2 (Colorectal Carcinoma)
In short: (§1)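 After 24 hours at 37°C and 5% CO2 in 1536-well plates, cells in DMEM/F12 or RPMI plus 10% FBS received two-drug dose matrices for 72 hours. Viability came from CellTiter-Glo 2.0 luminescence and was scaled as inhibition, anchored at 0 by vehicle wells and at 1 by blank wells. Combination Emax is taken as the second-highest inhibition in the matrix, and Bliss excess as the observed combination effect less EA + EB − EA·EB, with EA and EB the single-agent effects.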

[2] = system: DAN-G (Pancreatic Carcinoma)
In short: as §1

G-361 (Melanoma) = system: G-361 (Melanoma)
In short: as §1

[3] = system: HCC1419 (Breast Carcinoma)
In short: as §1

[4] = system: JHH-4 (Hepatocellular Carcinoma)
In short: as §1

[5] = system: KMS-12-BM (Plasma Cell Myeloma)
In short: as §1

[6] = system: KU812 (Chronic Myelogenous Leukemia)
In short: as §1

M059J (Glioblastoma) = system: M059J (Glioblastoma)
In short: as §1

[7] = system: MOG-G-CCM (Low Grade Glioma)
In short: as §1

[8] = system: MOLM-13 (Acute Myeloid Leukemia)
In short: as §1

[9] = system: NCCIT (Other Solid Carcinomas)
In short: as §1

NCI-H2731 (Mesothelioma) = system: NCI-H2731 (Mesothelioma)
In short: as §1

[10] = system: NCI-H3122 (Lung Adenocarcinoma)
In short: as §1

[11] = system: NCI-H526 (Small Cell Lung Carcinoma)
In short: as §1

[12] = system: NCI-H929 (Plasma Cell Myeloma)
In short: as §1

RD (Rhabdomyosarcoma) = system: RD (Rhabdomyosarcoma)
In short: as §1

[13] = system: RPMI-8226 (Plasma Cell Myeloma)
In short: as §1

SJSA-1 (Osteosarcoma) = system: SJSA-1 (Osteosarcoma)
In short: as §1

[14] = system: SK-GT-2 (Gastric Carcinoma)
In short: as §1

[15] = system: VMRC-RCZ (Kidney Carcinoma)
In short: as §1

SMILES	combination Emax [1]	combination Emax [2]	combination Emax (G-361 (Melanoma))	combination Emax [3]	combination Emax [4]	combination Emax [5]	combination Emax [6]	combination Emax (M059J (Glioblastoma))	combination Emax [7]	combination Emax [8]	combination Emax [9]	combination Emax (NCI-H2731 (Mesothelioma))	combination Emax [10]	combination Emax [11]	combination Emax [12]	combination Emax (RD (Rhabdomyosarcoma))	combination Emax [13]	combination Emax (SJSA-1 (Osteosarcoma))	combination Emax [14]	combination Emax [15]
CN(C)CCCOc1ccc(-c2ccc3ncc4c(c3c2)n(C2CCOCC2)c(=O)n4C)cn1 [AZD0156] + CCN(CCO)CCCOc1ccc2c(Nc3cc(CC(=O)Nc4cccc(F)c4)[nH]n3)ncnc2c1 [AZD2811] (first compound max 1 µM, 7x7, partner max 1 µM)	0.123	0.321	0.256	0.118	0.095	0.495	0.584	0.338	0.367	0.983	0.17	0.144	0.446	0.373	0.815	0.0353	0.556	0.123	0.0747	0.078
Cc1cc2ncnn2cc1Nc1ncc2c(n1)n(C1CCOCC1)c(=O)n2C [AZD7648] + C=CCn1c(=O)c2cnc(Nc3ccc(N4CCN(C)CC4)cc3)nc2n1-c1cccc(C(C)(C)O)n1 [AZD1775] (first compound max 10 µM, partner max 1 µM)	0.391	0.631	0.545	0.341	0.483	0.937	0.799	0.522	0.48	1	0.853	0.416	0.744	0.721	0.827	0.32	0.348	0.486	0.74	0.393
COc1nnc2ccc(N3CCC(c4ccc(OCCN5CCN(C)C(=O)[C@H]5C)cc4)CC3)nn12 [AZD5153] + CCN(CCO)CCCOc1ccc2c(Nc3cc(CC(=O)Nc4cccc(F)c4)[nH]n3)ncnc2c1 [AZD2811] (first compound max 1 µM, 7x7, partner max 1 µM)	0.542	0.409	0.649	0.355	0.367	0.998	0.935	0.751	0.571	1	0.832	0.489	0.668	0.944	0.939	0.605	0.8	0.64	0.302	0.367
CC1(C)CCC(CN2CCN(c3ccc(C(=O)NS(=O)(=O)c4ccc(NCC5CCOCC5)c([N+](=O)[O-])c4)c(Oc4cnc5[nH]ccc5c4)c3)CC2)=C(c2ccc(Cl)cc2)C1 [Venetoclax] + CCN(CCO)CCCOc1ccc2c(Nc3cc(CC(=O)Nc4cccc(F)c4)[nH]n3)ncnc2c1 [AZD2811] (first compound max 1 µM, 7x7, partner max 1 µM)	0.177	0.21	0.285	0.212	0.205	1	0.65	0.375	0.485	1	0.282	0.211	0.33	0.928	0.391	0.172	0.481	0.222	0.155	0.178
C[C@@H]1COCCN1c1cc(C2([S@](C)(=N)=O)CC2)nc(-c2ccnc3[nH]ccc23)n1 [AZD6738] + O=C(c1cc(Cc2n[nH]c(=O)c3ccccc23)ccc1F)N1CCN(C(=O)C2CC2)CC1 [Olaparib] (first compound max 10 µM, 7x7, partner max 10 µM)	0.473	0.643	0.456	0.191	0.251	0.945	0.806	0.684	0.42	1	0.609	0.304	0.726	0.752	0.668	0.332	0.96	0.377	0.355	0.319
CN(C)CCCOc1ccc(-c2ccc3ncc4c(c3c2)n(C2CCOCC2)c(=O)n4C)cn1 [AZD0156] + O=C(c1cc(Cc2n[nH]c(=O)c3ccccc23)ccc1F)N1CCN(C(=O)C2CC2)CC1 [Olaparib] (first compound max 3 µM, partner max 3 µM)	0.177	0.576	0.267	0.187	0.22	0.438	0.64	0.318	0.289	0.563	0.194	0.201	0.251	0.408	0.863	0.238	0.421	0.331	0.273	0.181
CN(CCO)CC[C@H](CSc1ccccc1)Nc1ccc(S(=O)(=O)NC(=O)c2ccc(N3CCC([C@@H](O)c4ccccc4-c4ccc(Cl)cc4)CC3)cc2)cc1S(=O)(=O)C(F)(F)F [AZD4320] + CN(C)CCCOc1ccc(-c2ccc3ncc4c(c3c2)n(C2CCOCC2)c(=O)n4C)cn1 [AZD0156] (first compound max 1 µM, 7x7, partner max 1 µM)	0.136	0.346	0.288	0.245	0.293	1	0.751	0.366	0.474	1	0.174	0.109	0.209	0.925	0.681	0.632	0.949	0.283	0.154	0.13
Cc1c2c(nn1C)CSCc1cc(n(C)n1)CSc1cc(c3ccccc3c1)OCCCc1c(C(=O)O)n(C)c3c-2c(Cl)ccc13 [AZD5991] + CN(C)CCCOc1ccc(-c2ccc3ncc4c(c3c2)n(C2CCOCC2)c(=O)n4C)cn1 [AZD0156] (first compound max 1 µM, 7x7, partner max 1 µM)	0.154	0.48	0.956	0.385	0.331	1	0.828	0.338	0.249	1	0.641	0.193	0.405	0.378	1	0.603	0.963	0.322	0.182	0.21
COc1nnc2ccc(N3CCC(c4ccc(OCCN5CCN(C)C(=O)[C@H]5C)cc4)CC3)nn12 [AZD5153] + Cn1cnc2c(F)c(Nc3ccc(Br)cc3Cl)c(C(=O)NOCCO)cc21 [Selumetinib] (first compound max 1 µM, 7x7, partner max 10 µM)	0.565	0.527	0.766	0.355	0.906	1	0.994	0.618	0.548	1	0.786	0.39	0.68	0.941	1	0.77	0.913	0.576	0.479	0.308
CCN(CCO)CCCOc1ccc2c(Nc3cc(CC(=O)Nc4cccc(F)c4)[nH]n3)ncnc2c1 [AZD2811] + O=C(c1cc(Cc2n[nH]c(=O)c3ccccc23)ccc1F)N1CCN(C(=O)C2CC2)CC1 [Olaparib] (first compound max 1 µM, 7x7, partner max 10 µM)	0.162	0.218	0.34	0.115	0.0395	0.34	0.678	0.413	0.285	1	0.226	0.226	0.271	0.642	0.292	0.19	0.491	0.17	0.203	0.195
CN(C)CCCOc1ccc(-c2ccc3ncc4c(c3c2)n(C2CCOCC2)c(=O)n4C)cn1 [AZD0156] + C[C@@H]1COCCN1C2=NC(=NC(=C2)C3(CC3)[S@](=N)(=O)C)C4=C5C=CNC5=NC=C4 [AZD6738] (first compound max 1 µM, 7x7, partner max 10 µM)	0.543	0.696	0.628	0.159	0.133	1	0.735	0.637	0.413	0.997	0.656	0.244	0.746	0.529	0.778	0.252	0.994	0.325	0.311	0.232
COc1nnc2ccc(N3CCC(c4ccc(OCCN5CCN(C)C(=O)[C@H]5C)cc4)CC3)nn12 [AZD5153] + Cc1c2c(nn1C)CSCc1cc(n(C)n1)CSc1cc(c3ccccc3c1)OCCCc1c(C(=O)O)n(C)c3c-2c(Cl)ccc13 [AZD5991] (first compound max 1 µM, 7x7, partner max 1 µM)	0.527	0.337	0.997	0.567	0.379	1	0.987	0.864	0.652	1	0.998	0.528	0.691	1	1	0.808	1	0.553	0.319	0.323
CC1(C)CCC(CN2CCN(c3ccc(C(=O)NS(=O)(=O)c4ccc(NCC5CCOCC5)c([N+](=O)[O-])c4)c(Oc4cnc5[nH]ccc5c4)c3)CC2)=C(c2ccc(Cl)cc2)C1 [Venetoclax] + CN(C)CCCOc1ccc(-c2ccc3ncc4c(c3c2)n(C2CCOCC2)c(=O)n4C)cn1 [AZD0156] (first compound max 1 µM, 7x7, partner max 1 µM)	0.174	0.264	0.115	0.289	0.234	1	0.403	0.169	0.385	0.898	0.275	0.145	0.264	0.856	0.691	0.161	0.43	0.177	0.155	0.14
